Data reported in paper PMC6225212, “Synthesis and Pharmacological Evaluation of Novel Silodosin-Based Arylsulfonamide Derivatives as α1A/α1D-Adrenergic Receptor Antagonist with Potential Uroselective Profile” (Molecules : A Journal of Synthetic Chemistry and Natural …, 2018).
Read-outs that look alike come from different tables or passages of the source.

Legend:
[1] = biological target: α2-ARs; assay: Radioligand binding, displacement of [3H]-Clonidine from α2-ARs on rat cerebral cortex; settings: ± SEM, two independent experiments
Experimental: (§1) The pharmacological profile of the new compounds was assessed in radioligand-binding assays as the ability to displace [^3H]-Prazosin or [^3H]-Clonidine from α1- and α2-ARs, respectively, on rat cerebral cortex. The inhibition constants (Ki) were calculated from the Cheng-Prusoff equation [24].
(§2) The affinity of the obtained compounds was evaluated by radioligand-binding assays (the ability to displace [^3H]-Prazosin and [^3H]-Clonidine from α1- and α2-ARs, respectively) on rat cerebral cortex. The brains are homogenized in 20 volumes of an ice-cold 50 mM Tris-HCl buffer (pH 7.6) and is centrifuged (MPW Med. Instruments, Warsaw, Poland) at 20,000 g for 20 min (0–4 °C). The cell pellet is resuspended in the Tris-HCl buffer and centrifuged again. Radioligand-binding assays are performed in plates (MultiScreen/Millipore, Burlington, MA, USA). The final incubation mixture (final volume 300 µL) consisted of 240 µL of the membrane suspension, 30 µL of [^3H]-Prazosin (0.2 nM) or [^3H]-Clonidine (2 nM) solution, and 30 µL of the buffer containing seven to eight concentrations (10^−11 to 10^−4 M) of the tested compounds. For measuring the unspecific binding, phentolamine, 10 µM (in the case of [^3H]-Prazosin) and clonidine, and 10 µM (in the case of [^3H]-Clonidine), were applied. The incubation was terminated by rapid filtration over glass fiber filters (Whatman GF/C, Sigma-Aldrich) using a vacuum manifold (Millipore). The filters were then washed twice with the assay buffer and placed in scintillation vials with a liquid-scintillation cocktail. Radioactivity was measured in a WALLAC 1409 DSA liquid-scintillation counter (BioSurplus, San Diego, CA, USA). All the assays were made in duplicate.

[2] = test system: α1-ARs; assay: Radioligand binding, displacement of [3H]-Prazosin from α1-ARs on rat cerebral cortex; settings: for Sα2/α1 (ratio of affinity for α2- and α1-ARs): Ki α2 / Ki α1; for Ki: [3H]-Prazosin, rat cerebral cortex, ± SEM, two independent experiments
Experimental: as §1, §2

[3] = biological target: T1, α1A-ARs (Homo sapiens, UniProt P35348); assay: Intrinsic activity at α1A-ARs, β-lactamase reporter gene, FRET substrate; format: cell-based; parameters: key to α1A Profile: ANT—antagonist; AGO—agonist; settings: for α1A Profile: functional profile; for IC50: antagonist mode, three independent experiments
T1 sequence (P35348 1-466): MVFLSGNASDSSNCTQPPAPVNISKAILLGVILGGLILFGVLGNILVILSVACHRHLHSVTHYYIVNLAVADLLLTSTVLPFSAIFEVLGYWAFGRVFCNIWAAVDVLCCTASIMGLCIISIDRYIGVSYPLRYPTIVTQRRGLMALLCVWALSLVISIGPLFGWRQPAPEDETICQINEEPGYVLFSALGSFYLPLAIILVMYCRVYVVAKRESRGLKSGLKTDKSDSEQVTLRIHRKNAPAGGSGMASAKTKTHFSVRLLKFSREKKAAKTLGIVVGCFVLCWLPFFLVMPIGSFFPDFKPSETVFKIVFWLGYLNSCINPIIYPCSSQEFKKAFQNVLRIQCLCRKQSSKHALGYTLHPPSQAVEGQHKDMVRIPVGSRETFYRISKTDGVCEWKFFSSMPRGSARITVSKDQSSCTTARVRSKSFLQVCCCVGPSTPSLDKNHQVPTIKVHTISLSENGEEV
Experimental: The intrinsic activity at α1A-ARs of the selected compounds was assessed by fluorescence detection (Invitrogen, Thermo Fisher Scientific, Carlsbad, CA, USA) of β-lactamase reporter genes using a FRET-enabled substrate. […] Intrinsic activity assay was performed according to the manufacturer of the assay kit (Invitrogen, Thermo Fisher Scientific corporation, Carlsbad, CA, USA). The cells were harvested and suspended in Assay Medium to a density of 312,500 cells/mL. Of the cell suspension, 32 µL per well was added to the Test Compound wells, the Unstimulated Control wells, and Stimulated Control wells and incubated per 16–24 h. […] Then, both the agonist and the antagonist plate were incubated in a humidified 37 °C/5% CO2 incubator for 5 h. After the incubation 8 µL of LiveBLAzer™-FRET B/G Substrate Mixture (CCF4-AM, Thermo Fisher Scientific corporation) was loaded cells in the absence of direct strong lighting, covered, and incubated at room temperature for 2 h.

[4] = biological target: T2, α1B-ARs (Homo sapiens, UniProt P35368); assay: Intrinsic activity at α1B-ARs, aequorin calcium mobilization luminescence; format: cell-based; parameters: key to α1B Profile: ANT—antagonist; AGO—agonist; settings: for α1B Profile: functional profile; for IC50: antagonist mode, three independent experiments
T2 sequence (P35368 1-520): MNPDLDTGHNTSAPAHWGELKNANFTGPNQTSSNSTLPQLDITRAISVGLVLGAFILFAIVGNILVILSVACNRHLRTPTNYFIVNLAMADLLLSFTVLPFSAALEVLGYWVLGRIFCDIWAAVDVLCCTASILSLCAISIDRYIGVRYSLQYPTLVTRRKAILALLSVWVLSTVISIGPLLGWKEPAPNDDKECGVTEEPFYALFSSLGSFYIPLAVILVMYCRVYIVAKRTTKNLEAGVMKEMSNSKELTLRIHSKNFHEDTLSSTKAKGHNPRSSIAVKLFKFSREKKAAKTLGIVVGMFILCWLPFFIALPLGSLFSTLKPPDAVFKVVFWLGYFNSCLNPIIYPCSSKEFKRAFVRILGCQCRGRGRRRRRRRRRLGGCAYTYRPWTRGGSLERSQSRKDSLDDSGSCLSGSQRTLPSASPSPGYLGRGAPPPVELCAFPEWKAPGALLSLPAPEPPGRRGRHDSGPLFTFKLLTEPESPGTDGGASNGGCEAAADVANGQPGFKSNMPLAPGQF
Experimental: (§3) The intrinsic activity at α1A-ARs of the selected compounds was assessed by fluorescence detection (Invitrogen, Thermo Fisher Scientific, Carlsbad, CA, USA) of β-lactamase reporter genes using a FRET-enabled substrate. The intrinsic activity at α1B-ARs and α1D-ARs was determined by luminescence detection (PerkinElmer, Zaventem, Belgium) of calcium mobilization using the recombinant-expressed jellyfish photoprotein (Aequorin).
(§4) Intrinsic activity assay to α1B- and α1D-ARs was performed according to the manufacturer of the ready-to-use cells with stable expression of the α1B-adrenoreceptors and α1D-adrenoreceptors, respectively (PerkinElmer, Zaventem, Belgium). For measurement, cells (frozen, ready to use) were thawed and resuspended in 10 mL of assay buffer containing 5 µM coelenterazine h. This cells suspension was put in a 10 mL Falcon tube, fixed onto a rotating heel, and incubated for overnight at rt in the dark (8 rpm; 45° angle). Cells were diluted with Assay Buffer to 5000 cells/20 µL. Agonistic ligands 2 × (50 µL/well), diluted in Assay Buffer, were prepared in ½ white polystyrene area plates, and the cell suspension was dispensed in 50 µL volume on the ligands using the injector. The light emitted was recorded for 20 s. Cells with antagonist were incubated for 15 min at room temperature. Thereafter, 50 µL of agonist (3 × EC80 final concentration) was injected into the mix of cells and antagonist and the light emitted was recorded for 20 s.

[5] = biological target: T3, α1D-ARs (Homo sapiens, UniProt P25100); assay: Intrinsic activity at α1D-ARs, aequorin calcium mobilization luminescence; format: cell-based; parameters: key to α1D Profile: ANT—antagonist; AGO—agonist; settings: for IC50: antagonist mode; for α1D Profile: functional profile
T3 sequence (P25100 1-572): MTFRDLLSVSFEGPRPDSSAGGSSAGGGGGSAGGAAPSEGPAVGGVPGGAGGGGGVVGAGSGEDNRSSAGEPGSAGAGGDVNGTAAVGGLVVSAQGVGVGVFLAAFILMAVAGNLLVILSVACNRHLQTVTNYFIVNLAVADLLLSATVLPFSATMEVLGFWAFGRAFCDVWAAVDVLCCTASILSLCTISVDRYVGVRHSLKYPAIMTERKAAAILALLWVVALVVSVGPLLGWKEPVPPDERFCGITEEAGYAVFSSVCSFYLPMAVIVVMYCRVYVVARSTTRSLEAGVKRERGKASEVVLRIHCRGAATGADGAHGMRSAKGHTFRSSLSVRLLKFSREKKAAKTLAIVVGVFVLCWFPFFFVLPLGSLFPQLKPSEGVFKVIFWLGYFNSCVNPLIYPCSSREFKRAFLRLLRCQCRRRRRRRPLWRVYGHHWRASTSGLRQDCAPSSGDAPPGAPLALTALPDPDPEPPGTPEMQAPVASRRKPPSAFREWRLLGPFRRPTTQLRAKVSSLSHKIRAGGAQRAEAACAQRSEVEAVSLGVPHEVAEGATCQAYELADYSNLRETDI
Experimental: as §3, §4

[6] = test system: α1-ARs; parameters: method as in PMID 27658792; settings: cited from earlier work
[7] = biological target: α2-ARs; parameters: method as in PMID 27658792; settings: [3H]-Clonidine, rat cerebral cortex; ± SEM; cited from earlier work
[8] = antagonist, as worded in abstract and text, read-out: EC50(α1D)

Row | SMILES | Ki [1] [nM] | Sα2/α1 (ratio of affinity for α2- and α1-ARs) [2] | Ki [2] [nM] | α1A Profile [3] | α1B Profile [4] | α1D Profile [5] | also measured
1 | COc1ccc(S(=O)(=O)N[C@H]2CCN(CCOc3ccccc3OCC(F)(F)F)C2)cc1OC [Compound 18, (S)-3,4-Dimethoxy-N-(1-{2-[(2,2,2-trifluoroethoxy)phenoxy]ethyl}pyrrolidin-3-yl)benzenesulfonamide] | 1140 ± 42 | 16 | 70 ± 1 |  |  |  | 
2 | COc1cc2nc(N3CCN(C(=O)C4CCCO4)CC3)nc(N)c2cc1OC (stereo not shown) [terazosin, reference compound] |  |  |  | ANT | ANT | ANT | IC50 ([5]; three independent experiments): 0.2 nM
3 | COc1ccc(S(=O)(=O)N[C@@H]2CCN(CCOc3ccccc3OCC(F)(F)F)C2)cc1OC [Compound 17, (R)-3,4-Dimethoxy-N-(1-{2-[(2,2,2-trifluoroethoxy)phenoxy]ethyl}pyrrolidin-3-yl)benzenesulfonamide] | 435 ± 21 | 4 | 105 ± 7 |  |  |  | 
4 | O=S(=O)(N[C@H]1CCN(CCOc2ccccc2OCC(F)(F)F)C1)c1ccc(F)cc1 [Compound 14, (S)-4-Fluoro-N-(1-{2-[(2,2,2-trifluoroethoxy)phenoxy]ethyl}pyrrolidin-3-yl)benzenesulfonamide] | > 10000 | >70 | 134 ± 16 |  |  |  | 
5 | O=S(=O)(NCC1CCN(CCOc2ccccc2OCC(F)(F)F)CC1)c1ccc(F)cc1 [Compound 8, 4-Fluoro-N-[(1-{2-[(2,2,2-trifluoroethoxy)phenoxy]ethyl}piperidin-4-yl)methyl]benzenesulfonamide] | 919 ± 25 | 46 | 20 ± 2 | ANT | ANT | ANT | IC50 [3]: 3.8 nM; IC50 [4]: 8.3 nM; IC50 ([5]; three independent experiments): 1.1 nM; EC50 [5, 8]: 1.1 to 2.7 nM
6 | COc1ccc(Cl)cc1S(=O)(=O)NCC1CCN(CCOc2ccccc2OCC(F)(F)F)CC1 [Compound 11, 5-Chloro-2-methoxy-N-[(1-{2-[(2,2,2-trifluoroethoxy)phenoxy]ethyl}piperidin-4-yl)methyl]benzenesulfonamide] | 1090 ± 62 | 12 | 95 ± 3 |  |  |  | 
7 | O=S(=O)(N[C@H]1CCN(CCOc2ccccc2OCC(F)(F)F)C1)c1cc(Cl)ccc1F [Compound 16, (S)-5-Chloro-2-fluoro-N-(1-{2-[(2,2,2-trifluoroethoxy)phenoxy]ethyl}pyrrolidin-3-yl)benzenesulfonamide] | 1470 ± 80 | 13 | 117 ± 10 |  |  |  | 
8 | COc1ccc(S(=O)(=O)NCC2CCN(CCOc3ccccc3OCC(F)(F)F)CC2)cc1OC [Compound 12, 3,4-Dimethoxy-N-[(1-{2-[(2,2,2-trifluoroethoxy)phenoxy]ethyl}piperidin-4-yl)methyl]benzenesulfonamide] | 524 ± 31 | 27 | 19 ± 3 | ANT | ANT | ANT | IC50 [3]: 15 nM; IC50 [4]: 0.02 nM; IC50 ([5]; three independent experiments): 2.6 nM; EC50 [5, 8]: 1.1 to 2.7 nM
9 | O=S(=O)(N[C@@H]1CCN(CCOc2ccccc2OCC(F)(F)F)C1)c1cc(Cl)ccc1F [Compound 15, (R)-5-Chloro-2-fluoro-N-(1-{2-[(2,2,2-trifluoroethoxy)phenoxy]ethyl}pyrrolidin-3-yl)benzenesulfonamide] | 1190 ± 74 | 7 | 171 ± 4 |  |  |  | 
10 | CC(C)Oc1ccccc1OCCN1CC[C@H](NS(=O)(=O)c2cc(Cl)ccc2F)C1 [II] |  |  |  |  |  |  | Sα2/α1 (ratio of affinity for α2- and α1-ARs) ([6]; Ki α2 / Ki α1): >41; Ki ([6]; [3H]-Prazosin, rat cerebral cortex, ± SEM): 242 ± 16 nM; Ki [7]: > 10000 nM
11 | CNC[C@H](O)c1cccc(O)c1 [phenylephrine, reference compound] |  |  |  | AGO ^b | AGO | AGO | EC50 ([5]; agonist mode, three independent experiments, read-out: α1D EC50): 12.1 nM
12 | O=S(=O)(N[C@@H]1CCN(CCOc2ccccc2OCC(F)(F)F)C1)c1ccc(F)cc1 [Compound 13, (R)-4-Fluoro-N-(1-{2-[(2,2,2-trifluoroethoxy)phenoxy]ethyl}pyrrolidin-3-yl)benzenesulfonamide] | 1690 ± 85 | 9 | 188 ± 3 |  |  |  | 
